From publication PMC6112376, “Comprehensive Analyses and Prioritization of Tox21 10K Chemicals Affecting Mitochondrial Function by in-Depth Mechanistic Studies” (Environmental Health Perspectives, 2018)
Read-outs that look alike come from different tables or passages of the source.

How the values were obtained:
[1] = test system: HepG2 cells; details: cited from earlier work
[2] = test system: HepG2 cells; details: for IC50: read-out: MMP assays IC50 (µM) HepG2
[3] = test system: rat primary hepatocytes; assay: MMP assay in rat primary hepatocytes; details: for IC50: read-out: MMP assays IC50 (µM) Rat Hepatocytes
[4] = test system: isolated rat liver mitochondria; assay: Oxygen consumption, Clark-type oxygen electrode; assay type: biochemical; details: for I-ADP, % of control (O2 consumption rate): glutamate/malate driven state 3 respiration; for I-ADP, % of control (O2 consumption rate) / I-sub, % of control (O2 consumption rate) / II-ADP, % of control (O2 consumption rate) / II-sub, % of control (O2 consumption rate): isolated rat liver mitochondria; for I-sub, % of control (O2 consumption rate): glutamate/malate driven state 4 respiration; for II-ADP, % of control (O2 consumption rate): succinate-driven state 3 respiration; for II-sub, % of control (O2 consumption rate): succinate-driven state 4 respiration
[5] = read-out: MMP assays IC50 (µM), qHTS-HepG2
[6] = HepG2 cells, single number from one experiment
[7] = rat hepatocytes, mean ± SD of three experiments
[8] = read-out: MMP assays IC50 (µM) qHTS-HepG2

SMILES | MMP assays efficacy (%) qHTS-HepG2 [1] | MMP assays efficacy (%) HepG2 [2, 6] | MMP assays IC50 (µM) Rat Hepatocytes [3, 7] | MMP assays efficacy (%) Rat Hepatocytes [3, 7] | IC50 [1, 8] [µM] | IC50 [2, 6] [µM] | IC50 [3, 7] [µM] | other results
Cl.O=C1CSC2(CCN(CCCN3c4ccccc4Sc4ccc(Cl)cc43)CC2)N1 [Spiclomazine hydrochloride] | -107±11% | inactive | inactive | inactive | – | – | – | IC50 [1, 5]: 34.8 ± 2.36 µM; MMP assays IC50 (µM) HepG2 [2, 6]: inactive
Cc1cc(N)c2cc(NC(=O)Nc3ccc4nc(C)cc(N)c4c3)ccc2n1.Cl.Cl [Aminoquinuride dihydrochloride] | -99±7% | -90% | – | inactive | 25 ± 4.09 | 27.5 | – | –
O=C(c1ccccc1)c1cc(Cl)ccc1O | -85±12% | -98% | – | -59±21% | 29.1 ± 3.36 | 39.8 | 25.4 ± 21.3 | –
CCCCCCCCCCn1cc[n+](C)c1.F[B-](F)(F)F [1-Decyl-3-methylimidazolium tetrafluoroborate] | -68±12% | -104% | – | -100±10% | 3.87 | 7.08 | 16.8 ± 7.73 | –
CO[C@H]1C[C@H](O[C@H]2[C@H](C)O[C@@H](O[C@@H]3/C(C)=C/C[C@@H]4C[C@@H](C[C@]5(C=C[C@H](C)[C@@H](C6CCCCC6)O5)O4)OC(=O)[C@@H]4C=C(C)[C@@H](O)[C@H]5OC/C(=C\C=C\[C@@H]3C)[C@]54O)C[C@@H]2OC)O[C@@H](C)[C@@H]1O [Doramectin] | -80±13% | -117% | inactive | inactive | 11.9 | 17.3 | – | –
Cl.Nc1ccc2cc3ccc(N)cc3nc2c1 [Proflavin hydrochloride] | -115±14% | -97% | – | -79±34% | – | 3.55 | 15.9 ± 5.23 | IC50 [1, 5]: 1.66 ± 0.63 µM
CCCCC/C(C=O)=C/c1ccccc1 [Amyl cinnamal] | inactive | – | – | – | – | – | – | MMP assays IC50 (µM) qHTS-HepG2 [1]: inactive; MMP assays IC50 (µM) HepG2 [2]: inactive; MMP assays efficacy (%) HepG2 [2]: inactive; MMP assays IC50 (µM) Rat Hepatocytes [3]: inactive
CN(C)C(=O)Nc1ccccc1 [Fenuron] | inactive | inactive | inactive | inactive | – | – | – | MMP assays IC50 (µM) qHTS-HepG2 [1]: inactive; MMP assays IC50 (µM) HepG2 [2, 6]: inactive
CN1CC(=O)NC1=NC(=O)Nc1cccc(Cl)c1 [Fenobam; McN-3377] | -70±17% | inactive | inactive | inactive | 25.9 ± 1.87 | – | – | MMP assays IC50 (µM) HepG2 [2, 6]: inactive
CCOC(=O)c1ccccc1C(=C1C=C(Br)C(=O)C(Br)=C1)c1cc(Br)c(O)c(Br)c1 [Tetrabromophenolphthalein ethyl ester] | -105±26% | -129% | – | -101±25% | – | 26.6 | 13.8 ± 0.94 | IC50 [1, 5]: 23.8 ± 6.89 µM
CC(C)[C@@H](C)/C=C/[C@@H](C)[C@H]1CC[C@H]2/C(=C/C=C3\C[C@@H](O)CC[C@@H]3C)CCC[C@]12C [Dihydrotachysterol] | -78±16% | inactive | inactive | inactive | 32.7 ± 1.32 | – | – | MMP assays IC50 (µM) HepG2 [2, 6]: inactive
CCCCCCCC[N+](C)(CCCCCCCC)CCCCCCCC.O=S(=O)([O-])C(F)(F)F [Methyltrioctylammonium trifluoromethanesulfonate] | -86±9% | -105% | – | -73±33% | – | 2.24 | 11.4 ± 2.12 | IC50 [1, 5]: 2.16 ± 0.72 µM
Cl.Cl.Nc1ccc(O)c(N)c1 [2,4-Diaminophenol dihydrochloride] | -58±5% | inactive | inactive | inactive | 3.77 ± 1.06 | – | – | MMP assays IC50 (µM) HepG2 [2, 6]: inactive
CCCCCCCCCCCCOC(=O)c1ccc(O)cc1 [Dodecylparaben] | -107±9% | -106% | inactive | inactive | 4.19 ± 1.07 | 7.94 | – | –
CCC(=O)O[C@]1(C(=O)CCl)[C@@H](C)C[C@H]2[C@@H]3CCC4=CC(=O)C=C[C@]4(C)[C@@]3(F)[C@@H](O)C[C@@]21C [Clobetasol propionate] | -98±19% | inactive | – | -39±3% | 24.6 ± 1.67 | – | – | MMP assays IC50 (µM) HepG2 [2, 6]: inactive; IC50 ([3]; Rattus norvegicus, Hepatocyte): 24.1 ± 9.54 µM
CC(O)C(=O)O.CCOc1ccc2nc3cc(N)ccc3c(N)c2c1.O [Ethacridine lactate hydrate] | -103±8% | – | – | -98±24% | 3.22 ± 0.55 | 5.48 | 10.2 ± 5.58 | –
CCc1cc(SCc2sc(-c3ccc(C(F)(F)F)cc3)nc2CN2CCN(c3ccc(OC)cc3)CC2)ccc1OCC(=O)O | -128±5% | -105% | – | -116±28% | 25.3 ± 5.81 | 31.6 | 23.1 ± 15.6 | –
CCc1ccc(O)cc1 [Compound 4-Ethylphenol] | inactive | inactive | inactive | inactive | – | – | – | MMP assays IC50 (µM) qHTS-HepG2 [1]: inactive; MMP assays IC50 (µM) HepG2 [2, 6]: inactive
CN[C@H]1CC[C@@H](c2ccc(Cl)c(Cl)c2)c2ccc(S(N)(=O)=O)cc21 | -78±20% | -84% | – | -51±37% | 8.31 ± 1.43 | 10 | 35.7 ± 5.79 | –
CCOc1ccc2[nH]cc(C(=O)NCc3ccccc3)c(=O)c2n1 | -88±7% | -92% | – | -80±31% | – | 15.8 | 24 ± 16.6 | IC50 [1, 5]: 14.8 ± 9.66 µM
CCCCCCCCCCCCCC[N+](C)(C)Cc1ccccc1.O.O.[Cl-] | -76±17% | -114% | inactive | inactive | 16.4 ± 4.28 | 13.8 | – | –
CCCCCCCC[N+](CCCCCCCC)(CCCCCCCC)CCCCCCCC.[Br-] [tetra-N-Octylammonium bromide] | -88±6% | -92% | inactive | inactive | – | 0.13 | – | –
O.O.O.O.[Na+].[O-]c1ccccc1-c1ccccc1 [Sodium 2-phenylphenate tetrahydrate] | -98±8% | -77% | inactive | inactive | – | 31.6 | – | IC50 [1, 5]: 18.5 µM
O=CC=C(c1ccccc1)c1ccccc1 [2-Propenal,3,3-diphenyl-] | -87±29% | -40% | – | -78±36% | 41.2 ± 19.3 | 56.2 | 17.1 ± 23.9 | –
NNc1nc(-c2ccc([N+](=O)[O-])cc2)cs1 [2-Hydrazino-4-(4-nitrophenyl) thiazole] | – | – | – | – | – | – | – | I-ADP, % of control (O2 consumption rate) ([4]; 20 µM): 103 (50.6) % of control; I-sub, % of control (O2 consumption rate) ([4]; 20 µM): 119 (19.1) % of control; II-ADP, % of control (O2 consumption rate) ([4]; 20 µM): 98 (76.1) % of control; II-sub, % of control (O2 consumption rate) ([4]; 20 µM): 99 (30.4) % of control; I-ADP, % of control (O2 consumption rate) ([4]; 100 µM): 61 (32.3) % of control; I-sub, % of control (O2 consumption rate) ([4]; 100 µM): 159 (21.4) % of control; II-ADP, % of control (O2 consumption rate) ([4]; 100 µM): 114 (77.1) % of control; II-sub, % of control (O2 consumption rate) ([4]; 100 µM): 153 (33.1) % of control; Potential Mechanism ([4]; mitochondrial respiration in isolated rat liver mitochondria, Clark type oxygen electrode, over tested concentrations): Uncoupler + inhibitor
CCCCCCCCCCCCn1cc[n+](C)c1.F[P-](F)(F)(F)(F)F | – | -119% | – | -111±27% | – | 5.01 | 8.81 ± 2.46 | –
CCCCCCCCCCCCCC[P+](CCCCCC)(CCCCCC)CCCCCC.F[P-](F)(F)(F)(F)F [Trihexyltetradecylphosphonium hexafluorophosphate] | – | -91% | inactive | inactive | – | 1.12 | – | –
CCCCCCCC[n+]1ccn(C)c1.F[P-](F)(F)(F)(F)F [1-Methyl-3-octylimidazolium hexafluorophosphate] | – | -77% | – | -86±43% | – | 25.1 | 39.8 | –
